This note sets out measurements from the supplement of paper PMC11061612.

The subject of assay [1] is CAPAN-1 (Pancreatic Carcinoma). The experiment in a line: Bliss excess, mean over the matrix (fraction); higher = more synergy. The method in brief:
(§1)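 Cell lines grown in DMEM/F12 or RPMI with 10% FBS were plated in 1536-well plates and held 24 hours at 37°C, 5% CO2 before 72 hours of exposure to two-drug dose matrices, with DMSO typically at 0.2%. CellTiter-Glo 2.0 luminescence gave viability, which was converted to inhibition. Vehicle wells were set to 0 and blank wells to 1. Combination Emax is the second-highest inhibition in the matrix, and Bliss excess is the observed combination effect minus the expected EA + EB − EA·EB, where EA and EB are the single-agent effects.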

Another assay has as its system COLO-829 (Melanoma). The description is as above. The method in brief: as §1
Assay [2] deals with HDLM-2 (Hodgkin's Lymphoma). Described as above. The method in brief: as §1
For assay [3], the system named is K5 (Thyroid Gland Carcinoma). The description is as above. The method in brief: as §1
In assay [4] the test system is LU-139 (Small Cell Lung Carcinoma). The description is as above. The method in brief: as §1
For assay [5], the system named is MHH-PREB-1 (B-Cell Non-Hodgkin's Lymphoma). Described as above. The method in brief: as §1
The subject of another assay is NB14 (Neuroblastoma). Described as above. The method in brief:
as §1

In a further assay the test system is NCI-H2795 (Mesothelioma). The description is as above. The method in brief: as §1
In assay [6] the test system is NCI-H69 (Small Cell Lung Carcinoma). The assay is described as above. The method in brief:
as §1

Assay [7] relates to OC-314 (Ovarian Carcinoma). The description is as above. The method in brief: as §1
Assay [8] has as its system RKO (Colorectal Carcinoma). Described as above. The method in brief:
as §1

The subject of assay [9] is RT-112 (Bladder Carcinoma). The assay is described as above. The method in brief: as §1
Assay [10] concerns SUP-T1 (T-Lymphoblastic Leukemia). The assay is described as above. The method in brief: as §1
The subject of assay [11] is SW1271 (Small Cell Lung Carcinoma). Described as above. The method in brief: as §1
In assay [12] the test system is SW626 (Colorectal Carcinoma). The description is as above. The method in brief: as §1
In assay [13] the test system is TE-4 (Esophageal Squamous Cell Carcinoma). The description is as above. The method in brief:
as §1

The subject of assay [14] is CAPAN-1 (Pancreatic Carcinoma). The experiment in a line: combination Emax (second highest fraction inhibited in the dose matrix, 72 h); higher = more inhibition; extreme values may be limits of the assay. The method in brief: as §1
Assay [15] has as its system KARPAS-231 (B-Cell Non-Hodgkin's Lymphoma). The assay is described as above. The method in brief: as §1
The next assay concerns Mewo (Melanoma). The assay is described as above. The method in brief: as §1
In assay [16] the test system is SW1116 (Colorectal Carcinoma). Described as above. The method in brief:
as §1
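For Bliss excess, mean over the matrix in this document: after 72 h of two-drug dosing.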

In the case of `CC(=O)c1c(C)c2cnc(Nc3ccc(N4CCNCC4)cn3)nc2n(C2CCCC2)c1=O` [Palbociclib] + Cn1cnc2c(F)c(Nc3ccc(Br)cc3Cl)c(C(=O)NOCCO)cc21 [Selumetinib] (first compound max 10 µM, 7x7, partner max 10 µM), the Bliss excess is -0.0741 in assay [1]; -0.0772 in the assay with COLO-829 (Melanoma); -0.0362 in assay [2]; -0.0341 in assay [3]; 0.0109 in assay [4]; -0.0401 in [5]. Besides, the Bliss excess is 0.0461 in the assay with NB14 (Neuroblastoma); -0.0173 in the assay with NCI-H2795 (Mesothelioma); -0.0071 in assay [6]; 0.0141 in [7]; 0.082 in assay [8]; -0.0333 in [9]. For the same compound, the Bliss excess in assay [10] was -0.0478; in assay [11], -0.0417; in [12] it was -0.057; in assay [13] it was -0.0115. Also, the “combination Emax” value turned out to be 0.382 in [14], 0.264 in assay [15], 0.485 in the assay on Mewo (Melanoma) and 0.396 in assay [16].

Take `NC1(C(=O)N[C@@H](CCO)c2ccc(Cl)cc2)CCN(c2ncnc3[nH]ccc23)CC1` [Capivasertib] + C[C@@H]1COCCN1C2=NC(=NC(=C2)C3(CC3)[S@](=N)(=O)C)C4=C5C=CNC5=NC=C4 [AZD6738] (first compound max 10 µM, 7x7, partner max 10 µM): the Bliss excess is -0.0423 in assay [1]; 0.0403 in the assay on COLO-829 (Melanoma); -0.0451 in assay [2]; -0.0693 in [3]; -0.0083 in assay [4]; -0.0486 in assay [5]. Besides, the Bliss excess with NB14 (Neuroblastoma) is -0.032; in the assay with NCI-H2795 (Mesothelioma) it was -0.0197; in assay [6], -0.0397; in assay [7], -0.024; in assay [8], -0.0207; in assay [9] it was -0.0698. Moreover, the Bliss excess in assay [10] is -0.0503; in [11] it was -0.0657; in [12], -0.0622; in assay [13], -0.0349. In addition, the “combination Emax” value in assay [14] amounted to 0.364; in assay [15] it was 0.691; in the assay on Mewo (Melanoma), 0.557; in [16] it was 0.227.

As to `Cc1nc(Nc2ncc(C(=O)Nc3c(C)cccc3Cl)s2)cc(N2CCN(CCO)CC2)n1` [Dasatinib] + CC(=O)Nc1cccc(-n2c(=O)n(C3CC3)c(=O)c3c(Nc4ccc(I)cc4F)n(C)c(=O)c(C)c32)c1 [Trametinib] (first compound max 2 µM, 7x7, partner max 1 µM), the Bliss excess was 0.0044 in assay [1]; -0.159 in the assay with COLO-829 (Melanoma); -0.0467 in assay [2]; 0.0175 in assay [3]; -0.0243 in assay [4]; -0.0504 in assay [5]. In addition, the Bliss excess is -0.065 in the assay with NB14 (Neuroblastoma); -0.0513 with NCI-H2795 (Mesothelioma); -0.048 in assay [6]; 0.0153 in [7]; 0.119 in assay [8]; -0.0344 in [9]. Besides, the Bliss excess was -0.0967 in [10], 0.119 in assay [11], 0.0385 in assay [12] and -0.12 in assay [13]. In addition, the “combination Emax” value worked out at 0.615 in [14], 0.476 in assay [15], 0.589 with Mewo (Melanoma) and 0.757 in assay [16].

Regarding `Cc1c2c(nn1C)CSCc1cc(n(C)n1)CSc1cc(c3ccccc3c1)OCCCc1c(C(=O)O)n(C)c3c-2c(Cl)ccc13` [AZD5991] + CC1(C)CCC(CN2CCN(c3ccc(C(=O)NS(=O)(=O)c4ccc(NCC5CCOCC5)c([N+](=O)[O-])c4)c(Oc4cnc5[nH]ccc5c4)c3)CC2)=C(c2ccc(Cl)cc2)C1 [Venetoclax] (first compound max 1 µM, 7x7, partner max 1 µM), the Bliss excess is -0.0459 in assay [1]; -0.0122 with COLO-829 (Melanoma); 0.162 in assay [2]; -0.0325 in assay [3]; 0.0307 in assay [4]; -0.0301 in assay [5]. For the same compound, the Bliss excess in the assay on NB14 (Neuroblastoma) was 0.255; in the assay on NCI-H2795 (Mesothelioma), -0.0423; in assay [6], -0.0383; in assay [7] it was -0.0045; in [8], 0.0107; in assay [9], 0.057. Moreover, the Bliss excess in assay [10] was -0.0207; in assay [11], -0.0504; in assay [12], -0.0064; in assay [13], 0.0017. In addition, the “combination Emax” value in [14] is 0.138; in assay [15], 1; in the assay with Mewo (Melanoma) it was 0.653; in assay [16], 0.145.

As to `CN(CCO)CC[C@H](CSc1ccccc1)Nc1ccc(S(=O)(=O)NC(=O)c2ccc(N3CCC([C@@H](O)c4ccccc4-c4ccc(Cl)cc4)CC3)cc2)cc1S(=O)(=O)C(F)(F)F` [AZD4320] + C=CCn1c(=O)c2cnc(Nc3ccc(N4CCN(C)CC4)cc3)nc2n1-c1cccc(C(C)(C)O)n1 [AZD1775] (first compound max 1 µM, partner max 1 µM), the Bliss excess in assay [1] was 0.0172; in the assay with COLO-829 (Melanoma) it was -0.0167; in assay [2], 0.106; in assay [3] it was 0.0069; in [4], 0.0145; in [5], -0.0454. In addition, the Bliss excess is 0.0415 in the assay on NB14 (Neuroblastoma); -0.0225 in the assay with NCI-H2795 (Mesothelioma); -0.0213 in assay [6]; -0.0187 in assay [7]; -0.0003 in assay [8]; -0.0285 in assay [9]. For the same compound, the Bliss excess in assay [10] is 0.0212; in assay [11] it was 0.0152; in assay [12] it was -0.0124; in assay [13] it was -0.0044. The “combination Emax” value in [14] is 0.732; in [15], 1; with Mewo (Melanoma), 0.548; in assay [16], 0.264.

In the case of `CC(=O)c1c(C)c2cnc(Nc3ccc(N4CCNCC4)cn3)nc2n(C2CCCC2)c1=O` [Palbociclib] + Cc1c2c(nn1C)CSCc1cc(n(C)n1)CSc1cc(c3ccccc3c1)OCCCc1c(C(=O)O)n(C)c3c-2c(Cl)ccc13 [AZD5991] (first compound max 10 µM, 7x7, partner max 1 µM), the Bliss excess in assay [1] is -0.033; in the assay with COLO-829 (Melanoma) it was -0.0232; in [2], -0.072; in assay [3] it was -0.046; in [4], 0.0198; in assay [5] it was -0.0405. For the same compound, the Bliss excess is -0.0498 with NB14 (Neuroblastoma); 0.0419 in the assay on NCI-H2795 (Mesothelioma); -0.0378 in [6]; -0.023 in assay [7]; 0.0342 in assay [8]; -0.0524 in assay [9]. Also, the Bliss excess in [10] was 0.0394; in [11] it was -0.0193; in [12], -0.0211; in [13], -0.0598. The “combination Emax” value in [14] came to 0.245; in [15] it was 0.657; in the assay with Mewo (Melanoma) it was 0.569; in [16] it was 0.164.
